# Tests used:
# [1] = target: T1, Succinate-semialdehyde dehydrogenase, mitochondrial (Homo sapiens, UniProt P51649); experiment: Inhibitory activity against SSADH
# T1 sequence (P51649 whole entry): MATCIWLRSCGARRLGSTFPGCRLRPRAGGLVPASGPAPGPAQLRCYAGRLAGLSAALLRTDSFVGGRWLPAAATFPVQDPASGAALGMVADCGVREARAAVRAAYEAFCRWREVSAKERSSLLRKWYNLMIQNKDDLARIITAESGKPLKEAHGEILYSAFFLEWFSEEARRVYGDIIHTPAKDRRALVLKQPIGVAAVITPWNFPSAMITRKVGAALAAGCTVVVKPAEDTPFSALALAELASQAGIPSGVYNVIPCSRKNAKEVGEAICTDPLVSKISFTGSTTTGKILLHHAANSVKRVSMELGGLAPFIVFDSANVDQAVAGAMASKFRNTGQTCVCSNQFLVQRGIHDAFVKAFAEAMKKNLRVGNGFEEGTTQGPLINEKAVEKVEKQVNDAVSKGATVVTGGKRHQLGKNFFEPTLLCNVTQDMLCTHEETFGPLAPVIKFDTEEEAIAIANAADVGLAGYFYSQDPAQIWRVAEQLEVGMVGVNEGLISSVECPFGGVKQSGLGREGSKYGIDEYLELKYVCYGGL
# [2] = target: 4-aminobutyrate aminotransferase, mitochondrial (Homo sapiens, UniProt P80404); experiment: Inhibitory activity against GABAT
# 4-aminobutyrate aminotransferase, mitochondrial, sequence (P80404 whole entry): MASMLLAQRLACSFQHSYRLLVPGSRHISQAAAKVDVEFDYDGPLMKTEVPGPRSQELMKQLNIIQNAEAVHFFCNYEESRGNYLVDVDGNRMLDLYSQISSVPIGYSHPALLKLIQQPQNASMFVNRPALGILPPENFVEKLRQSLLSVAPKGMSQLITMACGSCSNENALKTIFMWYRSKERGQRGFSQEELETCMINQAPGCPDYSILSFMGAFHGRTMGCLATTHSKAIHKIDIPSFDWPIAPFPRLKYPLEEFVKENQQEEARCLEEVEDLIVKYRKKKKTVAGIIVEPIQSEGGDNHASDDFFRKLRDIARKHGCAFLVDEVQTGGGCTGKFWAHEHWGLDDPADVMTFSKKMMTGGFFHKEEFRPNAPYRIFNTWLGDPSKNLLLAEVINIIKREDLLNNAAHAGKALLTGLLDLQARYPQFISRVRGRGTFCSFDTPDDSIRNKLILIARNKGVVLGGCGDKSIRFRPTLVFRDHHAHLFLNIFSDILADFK
Structure (SMILES),IC50 [1],IC50 [2]
OCc1ccc(O[C@@H]2O[C@H](CO)[C@@H](O)[C@H](O)[C@H]2O)cc1 [GASTRODIN],> 1000 µM,> 1000 µM
O=Cc1ccc(O)c([N+](=O)[O-])c1,33.1 µM,15.5 µM
O=Cc1ccc(O)cc1 [4-HYDROXYBENZALDEHYDE],24.7 µM,16.5 µM
COc1cc(C=O)ccc1O [VANILLIN],15.6 µM,17.1 µM
COc1ccc(C=O)cc1 [ANISALDEHYDE],> 1000 µM,> 1000 µM
C=CC(=O)c1ccc(O)cc1,0.35 µM,5.48 µM
NCc1ccc(O)cc1,> 1000 µM,15.4 µM
O/N=C/c1ccc(O)cc1,> 1000 µM,> 1000 µM
COc1cc(/C=N/O)ccc1O,> 1000 µM,> 1000 µM
O=C(O)c1ccc(O)cc1 [PARABEN],> 1000 µM,> 1000 µM

# The remaining lines, values ahead:
IC50 [1],IC50 [2],Structure (SMILES)
> 1000 µM,> 1000 µM,Nc1ccc(C(=O)O)cc1 [AMINOBENZOIC ACID]
> 1000 µM,> 1000 µM,OCc1ccc(O)cc1 [PARAHYDROXYBENZYL ALCOHOL]
166 µM,188 µM,CC(=O)c1ccc(O)cc1 [4-HYDROXYACETOPHENONE]
293 µM,176 µM,CCC(=O)c1ccc(O)cc1 [PAROXYPROPIONE]
> 1000 µM,> 1000 µM,O=Cc1ccc(O[C@@H]2O[C@H](CO)[C@@H](O)[C@@H](O)[C@H]2O)cc1 [HELICIDE]
